“Also recorded” adds a separate entry of the source.
Experiments:
[1] = tested on: human liver microsomes (HLMs); experiment: Metabolic stability of seven diterpenoids in human liver microsomes; format: in vitro ADME; details: 10 µM, 0.5 mg/mL HLMs, 37 °C, 60 min
Protocol: For metabolism profiling, 10 µM of each of the seven compounds isolated from C. cassia bark was added to 0.5 mg/mL of pooled HLMs and 0.1 M potassium phosphate buffer (pH 7.4). The HLMs were then preincubated at 37 °C for 1 min. After adding NGS, the reaction mixture was incubated at 37 °C for 60 min. After the 60 min incubation period, 50 µL of the reaction mixture was transferred to a new tube, and 50 µL of 100% ACN containing 0.1% formic acid and tolbutamide (internal standard) was added to terminate the reaction. The mixture was then vortexed, followed by centrifugation at 15,700× g (13,000 rpm) for 10 min (Eppendorf AG, Hamburg, Germany). Finally, 90 µL of the supernatant was transferred to a vial and injected into a C18 column for LC–MS/MS analysis.
The metabolism screening of the seven compounds was performed using an HPLC system (Thermo Fisher Scientific, Bremen, Germany) equipped with an HPG-3200SD standard binary pump, a WPS-3000 TRS analytical autosampler, and a TCC-3000 SD column compartment. The HPLC system was coupled with an HR-MS (Q-Exactive Focus Quadrupole-Orbitrap MS; Thermo Fisher Scientific, Waltham, MA, USA) at the Mass Spectrometry Convergence Research Center. The full MS resolution and scan ranges were 70,000 and 60–900 m/z, respectively. The MS/MS resolution was 35,000. The mass spectra were obtained in negative ion electrospray mode. A heated electrospray ionization (HESI-II) probe was used as an ion generator, with nitrogen as the sheath gas at 35 aux units and auxiliary gas at 12 aux units. The mass spectrometer was operated in negative ionization mode. The other parameters were as follows: spray voltage, 3.5 kV; capillary temperature, 320 °C; S-lens radio frequency level, 50; and aux gas heater temperature, 400 °C.
The mobile phase consisted of 100% water with 0.1% formic acid (mobile phase A) and 100% ACN with 0.1% formic acid (mobile phase B). For metabolic stability, the gradient conditions were set as follows: 5% of B at 0.5–2.0 min, 5–50% of B at 2.0–4.5 min, 50% of B at 4.5–7.0 min, and 50–5% of B at 7.0–10.0 min at 40 °C with a flow rate of 0.2 mL/min. For metabolite identification, the gradient conditions were as follows: 10% of B at 0–5 min, 10–55% of B at 5–15 min, 55% of B at 15–23 min, and 55–10% of B at 23–30 min with a flow rate of 0.25 mL/min. Chromatographic separation was performed using a Kinetex C18 column (150 × 2.1 mm, 2.6 μm, XB-C18 100 Å, S/No: H19-070128; Phenomenex, Torrance, CA, USA). Data were analyzed using Xcalibur version 4.0 software (Thermo Fisher Scientific, Waltham, MA, USA).
To confirm their metabolic stability, seven diterpenoids (AHC, anhydrocinnzeylanol, cinncassiol A, cinncassiol B, cinnzeylanol, cinnzeylanone, and cinnzeylanine) derived from the bark of C. cassia were incubated with HLMs in the presence of the NGS for 60 min (Figure 1B). The metabolic stability of each compound was determined according to the ratio of the peak area at 60 min to that at 0 min. […] Therefore, we identified the metabolites of AHC produced in HLMs.

[2] = tested on: human liver microsomes (HLMs); experiment: Identification of phase I metabolites of AHC in HLMs; format: in vitro ADME; details: 10 µM AHC, 1 mg/mL pooled HLMs, with NGS, 60 min
Protocol: To identify AHC metabolites, 10 µM AHC was incubated with 1 mg/mL pooled HLMs in 0.1 M potassium phosphate buffer (pH 7.4) at 37 °C for 60 min. The reactions were initiated by adding NGS to obtain a final incubation volume of 200 µL. All experiments were conducted in triplicate. The reaction was terminated by adding 400 µL of 100% ACN, and the mixture was vortexed and then centrifuged for 10 min at 15,700× g. Next, the supernatant (550 µL) was transferred to a new tube and dried using a speed-vac concentrator with a cold trap (Labconco, Kansas, MO, USA). Subsequently, the dried samples were reconstituted in 100 µL of 20% MeOH containing 0.1% formic acid before centrifugation at 15,700× g for 10 min. Finally, the mixture was injected into a liquid chromatograph with a tandem mass spectrometer for analysis. […]
The mobile phase consisted of 100% water with 0.1% formic acid (mobile phase A) and 100% ACN with 0.1% formic acid (mobile phase B). […] Data were analyzed using Xcalibur version 4.0 software (Thermo Fisher Scientific, Waltham, MA, USA).
To identify the phase I metabolites of AHC in HLMs, 10 µM AHC was incubated in pooled HLMs without or with the NGS for 60 min. […] The extracted ion chromatograms of the generated AHC metabolites are shown in Figure 2A,B. AHC was detected as a deprotonated ion, [M − H]^−, at m/z 407 and 15.6 min in the negative ion mode. […]

CC(=O)O[C@@H]1[C@@H](C)CC[C@]2(O)[C@]3(C)CC(=O)O[C@]12[C@@]1(O)C(C)=C(C(C)C)C[C@@]31O [AHC, anhydrocinnzeylanine]
metabolic stability in HLMs (in words) ([1]; NGS): most rapid metabolization; also recorded: unique reduction in metabolic stability; also recorded: highest metabolic rate | parent remaining after metabolism in HLMs (metabolized to) ([1]; β-NADPH): 3% | number of metabolites produced in HLMs [2]: 20

Reference: article PMC8400920, “Metabolism of Diterpenoids Derived from the Bark of Cinnamomum cassia in Human Liver Microsomes” (Pharmaceutics, 2021)
